Test results taken from patent US5462848A, “Color photographic materials including magenta coupler, inhibitor-releasing coupler and carbonamide compound, and methods” (Eastman Kodak Company, priority 1993, dated 1995).

Experiment: Potentiometric titration of dispersion pKa of couplers as aqueous dispersions
Assay type: physicochemical
Details: 0.50M potassium counter ion
Description: Preferred two-equivalent magenta dye-forming couplers for the practice of this invention include those that have pKa values of less than 10.0 when dispersed together with a coupler solvent. Potentiometric titrations were used to measure pKa values for some of the preferred couplers of the invention as aqueous dispersions. In these two-phase mixtures, the term pKa denotes the aqueous buffer pH at which half of the coupler in the oil phase is ionized or ion paired. Table I lists dispersion pKa values measured with 0.50M potassium counter ion.

[1] = coupler solvent S2, coupler:solvent 1:2, aqueous dispersion
[2] = coupler solvent C5, coupler:solvent 1:1, aqueous dispersion
[3] = coupler solvent S1, coupler:solvent 1:1, aqueous dispersion

Row | Compound | pKa (0.5M K+) [1] | pKa (0.5M K+) [2] | pKa (0.5M K+) [3] | pKa (0.5M K+) (coupler solvent C1, coupler:solvent 1:2, aqueous dispersion)
1 | CCCCCCCCCCCCCC(=O)Nc1ccc(Cl)c(NC2=NN(c3c(Cl)cc(Cl)cc3Cl)C(=O)C2Sc2ccccc2NC(=O)C(CC)Oc2ccc(C(C)(C)CC)cc2C(C)(C)CC)c1 (stereo not drawn) [M3] |  | 8.2 | 7.9 | 
2 | CCCCCCCCCCCCCCCC(=O)Nc1ccc(Cl)c(NC2=NN(c3c(Cl)c(Cl)c(Cl)c(Cl)c3Cl)C(=O)C2Sc2ccccc2NC(=O)OCc2ccccc2)c1 (stereo not drawn) [M7] | 7.5 |  |  | 

Other lines, results leading:

Row | pKa (0.5M K+) [1] | pKa (0.5M K+) [2] | pKa (0.5M K+) [3] | pKa (0.5M K+) (coupler solvent C1, coupler:solvent 1:2, aqueous dispersion) | Compound
3 | 8.5 |  |  |  | CCCCCCCCCCCCNS(=O)(=O)c1ccc(NC2=NN(c3c(Cl)cc(Cl)cc3Cl)C(=O)C2Sc2cc(C(C)(C)CC(C)(C)C)ccc2OCCCC)c(Cl)c1 (stereo not drawn) [M1]
4 |  | 8.0 | 7.6 |  | CCCCCCCCCCCCNS(=O)(=O)c1ccc(NC2=NN(c3c(Cl)cc(Cl)cc3Cl)C(=O)C2Sc2ccccc2NC(=O)C(CC)Oc2ccc(C(C)(C)CC)cc2C(C)(C)CC)c(Cl)c1 (stereo not drawn) [M4]
5 | 7.9 |  |  |  | CCCCCCCCCCCCNS(=O)(=O)c1ccc(NC2=NN(c3c(Cl)cc(Cl)cc3Cl)C(=O)C2Sc2ccccc2NC(=O)CCCCCCCCCCC)c(Cl)c1 (stereo not drawn) [M8]
6 | 8.4 |  |  | 8.9 | CCCCCCCCCCCCCCCCCCNS(=O)(=O)c1ccc(Cl)c(NC2=NN(c3c(Cl)cc(Cl)cc3Cl)C(=O)C2Sc2cc(C(C)C)ccc2C(C)C)c1 (stereo not drawn) [M20]
